Assays:
[1] = test system: PC12 (TrkA & p75); experiment: 125I-NGF binding displacement in PC12 cells; design: species or system rat; conditions: for NGF binding displacement, dose-response curve: PC12 cells expressing TrkA and p75
Procedure: The method for acquiring the PC12 data described in Table 1 is described herein in Example 1. Each experiment was done at least once with an n value of 4 for each data point. (n/a=not acquired)
All cells were incubated at 37° C. in 5% CO2. PC12 cells were maintained in RPMI-1640 medium supplemented with 10% fetal bovine serum (FBS). A875 human melanoma cells were maintained in DMEM with 10% FBS. HEK 293 cells were stably transfected with human TrkA plasmid (see below) and maintained in DMEM with 10% FBS and G418 (600 μg/mL) for selection.
NGF binding was evaluated using methods familiar to those who are skilled in the art. Briefly, cells expressing one or both NGF receptors (PC12: TrkA+p75; A875: p75 alone; HEK_TrkA: TrkA alone) were harvested by replacing the medium with calcium-magnesium free balanced salt (Grey's) solution and incubating at 37° C. for 15 min. For NGF binding, cells were resuspended at a concentration of 2×10^6 cells/mL in HEPES-Krebs-Ringer (HKR) buffer (10 mM HEPES; 125 mM NaCl; 4.8 mM KCl; 1.3 mM CaCl2; 1.2 mM MgSO4; 1.2 mM KH2PO4; 1 mg/ml BSA; 1 mg/ml glucose; pH 7.4) and exposed to ^125I-NGF (˜0.1 nM) in the presence or absence of varying concentrations of the compound. Non-specific binding was determined for reference by incubating ^125I-NGF with an excess of non-radioactive NGF in the abence of compound. Following a two-hour incubation period at 4° C., ^125I-NGF bound to the cells was quantified in a gamma radiation counter following separation from unbound NGF by filtration or centrifugation through glycerol (10% in HKR). Inhibition of binding was calculated as a percent of the specific binding (calculated as the differential between ^125I-NGF binding in the absence and presence of an excess of non-radioactive NGF without compound). Dose-response inhibition curves were typically generated with seven concentrations of a given compound, with three replicates for each concentration. For most compounds, multiple dose-response curves were generated.
The IC50 data shown in Table 1 were acquired using the procedure described herein using PC12 cells.

[2] = test system: NGF-induced Erk 1/2 phosphorylation in PC12 cells; experiment: NGF-induced Erk 1/2 phosphorylation, Western blot; format: cell-based, rat; conditions: NGF 5 ng/mL
Procedure: This assay is useful for establishing that the compounds of the invention are functional NGF antagonists, not receptor agonists (an agonist could conceivably block NGF binding but actually activate the receptor). Erk 1/2 is a kinase activated down stream of TrkA and is a well studied member of the NGF-induced signal transduction cascade.
PC12 cells expressing TrkA and p75 were acutely exposed to 5 ng/mL NGF (15 min; 37° C.; 5% CO2) that was pre-incubated (30 min; room temperature) with or without the compounds. Cells were lysed in Laemmli sample buffer (for SDS-PAGE) or a lysis buffer containing Triton X-100 (for ELISA). Following SDS-PAGE, proteins were electroblotted onto nitrocellulose and immunoprobed for phosphorylated Erk 1 and 2. Blocking and primary antibody incubations of immunoblots were performed in Tris-buffered saline-Tween (10 mM Tris, pH 8.0, 150 mM NaCl, and 0.2% Tween 20) supplemented with 5% (w/v) bovine serum albumin (BSA); secondary antibody incubations were performed in 5% (w/v) dried skim milk powder. Immunoreactive bands were detected by chemiluminescence.

[3] = Writhing Test (acetic acid abdominal contraction test); format: in vivo; conditions: mice
Procedure: The acetic acid abdominal contraction test (Martinez et al., Pain 1999; 81: 179) was used to determine the efficacy of different compounds in a model of acute visceral chemical nociception. […] Compound or vehicle was administered (i.p. or s.c.) 15-45 minutes prior to the acetic acid injection. Each episode of writhing is characterized by a lengthwise stretching of the torso with a concomitant arching of the back.
Statistical analysis was performed using Prism™ 4.01 software package (GraphPad, San Diego, Calif., USA). The difference in response levels between treatment groups and control vehicle group was analyzed using an ANOVA followed by Bonferroni's method for post-hoc pair-wise comparisons. A p value <0.05 was considered to be significant
Animals were treated with vehicle (VEH) or Compound 91 (5 mg/kg i.p.; [CMP 1] and 50 mg/kg i.p. [CMP 2])) 10-20 minutes before the intraperitoneal injection of acetic acid, as described in this example.

O=C(O)c1ccc(Cl)c(N2C(=O)c3ccc4c(=O)n5c6cc(Cl)ccc6nc5c5ccc(c3c45)C2=O)c1 [Compound 99, 2-(5-Carboxy-2-chloro-phenyl)-1,3,6-trioxo-1,2,3,6-tetrahydro-9-chloro-benzo[lmn]benzo[4,5]imidazo[2,1-b][3,8]phenanthroline]
PC12 (TrkA & p75) Single point (% max binding) Mean ([1]; compound concentration 10 μM): *** (0 > *** > 30)

COC(=O)c1ccc2nc3c4ccc5c6c(ccc(c(=O)n3c2c1)c64)C(=O)N(c1cc(C(=O)O)ccc1Cl)C5=O [Compound 102, Methyl-2-(5-Carboxy-2-chloro-phenyl)-1,3,6-trioxo-1,2,3,6-tetrahydro-benzo[lmn]benzo[4,5]imidazo[2,1-b][3,8]phenanthroline-9-carboxylic acid ester]
PC12 (TrkA & p75) Single point (% max binding) Mean ([1]; compound concentration 10 μM): * (* > 50)

O=C(O)c1cccc(N2C(=O)c3ccc4c(=O)n5c6cc(C(=O)O)ccc6nc5c5ccc(c3c45)C2=O)c1 [Compound 93, 2-(3-Carboxy-phenyl)-1,3,6-trioxo-1,2,3,6-tetrahydro-benzo[lmn]benzo[4,5]imidazo[2,1-b][3,8]phenanthroline-9-carboxylic acid]
PC12 (TrkA & p75) Single point (% max binding) Mean ([1]; compound concentration 50 μM): ** (30 > ** > 50)

O=C(O)c1ccc(Cl)c(N2C(=O)c3ccc4c(=O)n5c6ccccc6nc5c5ccc(c3c45)C2=O)c1 [Compound 98, 2-(5-Carboxy-2-chloro-phenyl)-1,3,6-trioxo-1,2,3,6-tetrahydro-benzo[lmn]benzo[4,5]imidazo[2,1-b][3,8]phenanthroline-9]
PC12 (TrkA & p75) Single point (% max binding) Mean ([1]; compound concentration 25 μM): *** (0 > *** > 30)

O=C(O)CCCN1C(=O)c2ccc3c(=O)n4c5cc(C(=O)O)ccc5nc4c4ccc(c2c34)C1=O [Compound 95, 2-(3-Carboxy-propyl)-1,3,6-trioxo-1,2,3,6-tetrahydro-benzo[lmn]benzo[4,5]imidazo[2,1-b][3,8]phenanthroline-9-carboxylic acid]
PC12 (TrkA & p75) Single point (% max binding) Mean ([1]; compound concentration 25 μM): * (* > 50)

O=C(O)c1ccc(Cl)c(N2C(=O)c3ccc4c(=O)n5c6cc([N+](=O)[O-])ccc6nc5c5ccc(c3c45)C2=O)c1 [Compound 100, 2-(5-Carboxy-2-chloro-phenyl)-1,3,6-trioxo-1,2,3,6-tetrahydro-9-nitro-benzo[lmn]benzo[4,5]imidazo[2,1-b][3,8]phenanthroline]
PC12 (TrkA & p75) Single point (% max binding) Mean ([1]; compound concentration 10 μM): *** (0 > *** > 30)

O=C(O)c1ccc(Cl)c(N2C(=O)c3ccc4c5c(ccc(c35)C2=O)C(=O)OC4=O)c1 [Compound 58, 4-Chloro-3-(1,3,6,8-tetraoxo-1,3,6,8-tetrahydro-2-oxa-7-aza-pyren-7-yl)-benzoic acid]
PC12 (TrkA & p75) Single point (% max binding) Mean ([1]; compound concentration 50 μM): *** (0 > *** > 30)

O=C([O-])c1ccc2nc3c4ccc5c6c(ccc(c(=O)n3c2c1)c46)c(=O)n1c2cc(C(=O)[O-])ccc2nc51.[Na+].[Na+] [Compound 91]
NGF binding displacement, dose-response curve [1]: effectively blocks NGF binding | Inhibition of NGF-induced Erk 1/2 phosphorylation [2]: inhibits NGF-induced Erk 1/2 phosphorylation | Antinociceptive effect in the Writhing Test ([3]; 5 and 50 mg/kg i.p., p<0.01 vs vehicle): significant antinociceptive effects | Chemically-induced abdominal contractions (number in 30 minutes) ([3]; i.p., n=6, vehicle 58±4, dose of the value (5 or 50 mg/kg) not stated): 16±9

O=C(O)CCCN1C(=O)c2ccc3c4c(ccc(c24)C1=O)C(=O)OC3=O [Compound 94]
PC12 (TrkA & p75) Single point (% max binding) Mean ([1]; compound concentration 25 μM): *** (0 > *** > 30)

COc1ccc2nc3c4ccc5c6c(ccc(c(=O)n3c2c1)c64)C(=O)N(c1cc(C(=O)O)ccc1Cl)C5=O [Compound 101, 2-(5-Carboxy-2-chloro-phenyl)-1,3,6-trioxo-1,2,3,6-tetrahydro-9-methoxy-benzo[lmn]benzo[4,5]imidazo[2,1-b][3,8]phenanthroline]
PC12 (TrkA & p75) Single point (% max binding) Mean ([1]; compound concentration 10 μM): ** (30 > ** > 50)

O=C(O)c1ccc(Cl)c(N2C(=O)c3ccc4c5c(ccc(c35)C2=O)C(=O)N(c2cc(C(=O)O)ccc2Cl)C4=O)c1 [Compound 18, 3-[7-(1-chloro-4-carboxy-phenyl)-1,3,6,8-tetraoxo-3,6,7,8-tetrahydro-1H-benzo[lmn][3,8]phenanthrolin-2-yl]-4-chloro-benzoic acid]
NGF binding displacement, dose-response curve [1]: effectively blocks NGF binding | PC12 (TrkA & p75) Single point (% max binding) Mean ([1]; compound concentration 50 μM): *** (0 > *** > 30)

O=C(O)CCCN1C(=O)c2ccc3c4c(ccc(c24)C1=O)C(=O)N(c1cc(C(=O)O)ccc1Cl)C3=O [Compound 59, 3-[7-(3-Carboxy-propyl)-1,3,6,8-tetraoxo-3,6,7,8-tetrahydro-1H-benzo[lmn][3,8]phenanthrolin-2-yl]-4-chloro-benzoic acid]
PC12 (TrkA & p75) Single point (% max binding) Mean ([1]; compound concentration 50 μM): *** (0 > *** > 30)

O=c1c2ccc3c4c(ccc(c24)c2nc4ccccc4n12)c(=O)n1c2ccccc2nc31.[K+] [Compound 92, 1,3,6-trioxo-1,2,3,6-tetrahydro-benzo[lmn]benzo[4,5]imidazo[2,1-b][3,8]diphenanthroline potassium salt]
PC12 (TrkA & p75) Single point (% max binding) Mean ([1]; compound concentration 50 μM): * (* > 50)

O=C1c2ccc3c4c(ccc(c24)C(=O)N1c1ccc(S(=O)(=O)O)cc1)C(=O)N(c1ccc(S(=O)(=O)O)cc1)C3=O [Compound 54, 4-(1,3,6,8-Tetraoxo-7-(4-benzenesulfonic acid)-3,6,7,8-tetrahydro-1H-benzo[lmn][3,8]phenanthrolin-2-yl)-benzenesulfonic acid]
PC12 (TrkA & p75) Single point (% max binding) Mean ([1]; compound concentration 50 μM): *** (0 > *** > 30)

Reference: patent publication US20070099900A1, “Methods of modulating neurotrophin-mediated activity” (PainCeptor Pharma Corporation, priority 2005, published 2007)
